Where two headings read alike, the source gives them in different places.
Assays:
Type in all cases: biochemical
[1] = target: T1, MMP-1 (Homo sapiens, UniProt P03956); experiment: MMP-1 inhibition (thiopeptide or fluorescent peptide substrate assay); details: read-out: MMP-1 IC50
T1 sequence (P03956 100-469): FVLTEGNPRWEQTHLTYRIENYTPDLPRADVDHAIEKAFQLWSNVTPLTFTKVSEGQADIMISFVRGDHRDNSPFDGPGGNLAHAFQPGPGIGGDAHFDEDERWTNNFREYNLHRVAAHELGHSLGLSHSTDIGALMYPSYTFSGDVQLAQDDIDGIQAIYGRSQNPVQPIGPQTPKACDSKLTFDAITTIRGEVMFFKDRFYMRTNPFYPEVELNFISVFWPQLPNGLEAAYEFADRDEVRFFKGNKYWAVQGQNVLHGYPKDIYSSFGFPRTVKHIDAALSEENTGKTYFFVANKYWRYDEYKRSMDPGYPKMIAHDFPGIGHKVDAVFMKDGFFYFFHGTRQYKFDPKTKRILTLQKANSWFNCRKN

[2] = target: MMP-9 (Homo sapiens, UniProt P14780); experiment: MMP-9 inhibition (thiopeptide or fluorescent peptide substrate assay); details: read-out: MMP-9 IC50
Chain of MMP-9 (P14780 94-707): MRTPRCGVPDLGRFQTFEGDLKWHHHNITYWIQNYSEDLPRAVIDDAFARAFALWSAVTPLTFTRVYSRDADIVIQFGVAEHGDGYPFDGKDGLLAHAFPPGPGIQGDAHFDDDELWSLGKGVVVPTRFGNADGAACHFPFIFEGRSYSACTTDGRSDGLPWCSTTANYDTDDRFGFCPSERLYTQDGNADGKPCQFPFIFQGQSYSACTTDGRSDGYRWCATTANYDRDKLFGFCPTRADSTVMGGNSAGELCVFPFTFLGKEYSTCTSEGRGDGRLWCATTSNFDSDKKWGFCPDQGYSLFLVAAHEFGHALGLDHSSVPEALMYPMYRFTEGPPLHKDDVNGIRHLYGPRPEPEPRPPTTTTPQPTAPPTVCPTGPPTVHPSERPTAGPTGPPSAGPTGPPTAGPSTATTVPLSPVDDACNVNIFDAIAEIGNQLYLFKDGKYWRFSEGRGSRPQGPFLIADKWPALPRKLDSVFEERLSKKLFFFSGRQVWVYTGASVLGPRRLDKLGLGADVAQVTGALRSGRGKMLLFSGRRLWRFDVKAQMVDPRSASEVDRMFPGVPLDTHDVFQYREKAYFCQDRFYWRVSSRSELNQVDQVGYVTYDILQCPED

[3] = target: MMP-13 (Homo sapiens, UniProt P45452); experiment: MMP-13 inhibition (thiopeptide or fluorescent peptide substrate assay)
[4] = target: TACE (Homo sapiens, UniProt P78536); experiment: TACE inhibition (fluorescent peptidyl substrate); details: for inhibition at 1 µM: at 1µM concentration
Chain of TACE (P78536 215-824): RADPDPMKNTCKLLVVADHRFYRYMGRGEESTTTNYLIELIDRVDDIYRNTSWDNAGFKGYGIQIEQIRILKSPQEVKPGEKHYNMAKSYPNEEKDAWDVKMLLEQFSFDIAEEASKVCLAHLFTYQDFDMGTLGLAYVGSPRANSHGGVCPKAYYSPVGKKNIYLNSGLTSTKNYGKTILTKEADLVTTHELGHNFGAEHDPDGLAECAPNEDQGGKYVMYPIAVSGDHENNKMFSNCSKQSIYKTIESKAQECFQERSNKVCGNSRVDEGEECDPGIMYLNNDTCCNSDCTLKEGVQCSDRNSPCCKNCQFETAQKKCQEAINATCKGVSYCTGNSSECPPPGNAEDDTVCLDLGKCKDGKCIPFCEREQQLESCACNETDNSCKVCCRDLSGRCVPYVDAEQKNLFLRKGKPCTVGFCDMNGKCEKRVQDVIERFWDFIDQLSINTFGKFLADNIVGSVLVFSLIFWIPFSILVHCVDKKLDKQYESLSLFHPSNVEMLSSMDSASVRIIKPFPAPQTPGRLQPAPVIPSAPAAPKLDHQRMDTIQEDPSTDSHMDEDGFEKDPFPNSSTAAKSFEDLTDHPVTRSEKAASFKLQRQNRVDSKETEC

Row | SMILES | IC50 [1] | IC50 [2] | IC50 ([3]; read-out: MMP-13 IC50) | IC50 ([4]; read-out: TACE IC50) | IC50 [4] | inhibition at 1 µM [4] | IC50 [3]
1 | COc1ccc(S(=O)(=O)N(Cc2ccccc2)c2c(OCCCCC(=O)NO)cccc2C(=O)NO)cc1 [Example 59, 2-[Benzyl-(4-methoxy-benzenesulfonyl)-amino]-N-hydroxy-3-(4-hydroxycarbamoyl-butoxy)-benzamide] | 242 nM | 8 nM | 34 nM | > 1000 nM |  |  | 
2 | COc1ccc(S(=O)(=O)N(Cc2ccccc2)c2c(C)cc(C)cc2C(=O)NO)cc1 [Example 68, 2-[Benzyl-(4-methoxy-benzenesulfonyl)-amino]-N-hydroxy-3,5-dimethyl-benzamide] | 82 nM | 21 nM | 15 nM | 239 nM |  |  | 
3 | CCCCOc1ccc(S(=O)(=O)N(Cc2ccccc2)c2c(C)cc(C)cc2C(=O)NO)cc1 [Example 72, 2-[Benzyl-(4-butoxy-benzenesulfonyl)-amino]-N-hydroxy-3,5-dimethyl-benzamide] | > 1000 nM | 144 nM | 137 nM | 377 nM |  |  | 
4 | COc1ccc(S(=O)(=O)N(Cc2cccnc2)c2c(C)cc(C)cc2C(=O)NO)cc1 [Example 88, N-Hydroxy-2-[(4-methoxy-benzenesulfonyl)-pyridin-3-ylmethyl-amino]-3,5-dimethyl-benzamide] | 132 nM | 15 nM | 11 nM | 50 nM |  |  | 
5 | COc1ccc(S(=O)(=O)N(Cc2cccc(OC)c2)c2c(C)cc(C)cc2C(=O)NO)cc1 [Example 115, N-Hydroxy-2-[(4-methoxy-benzenesulfonyl)-(3-methoxy-benzyl)-amino]-3,5-dimethyl-benzamide] | > 1000 nM | 11 nM | 20 nM | 173 nM |  |  | 
6 | COc1ccc(S(=O)(=O)N(Cc2c(F)c(F)c(OC)c(F)c2F)c2c(C)cc(C)cc2C(=O)NO)cc1 [Example 116, N-Hydroxy-2-[(4-methoxy-benzenesulfonyl)-(2,3,5,6-tetrafluoro-4-methoxy-benzyl)-amino]-3,5-dimethyl-benzamide] | 201 nM | 13 nM | 14 nM | 271 nM |  |  | 
7 | COc1ccc(S(=O)(=O)N(Cc2ccccc2Br)c2c(C)cc(C)cc2C(=O)NO)cc1 [Example 118, 2-[(2-Bromo-benzyl)-(4-methoxy-benzenesulfonyl)-amino]-N-hydroxy-3,5-dimethyl-benzamide] | 248 nM | 345 nM | 229 nM | > 1000 nM |  |  | 
8 | COc1ccc(S(=O)(=O)N(C)c2c(C)cc(C)cc2C(=O)NO)cc1 [Example 130, N-Hydroxy-2-[(4-methoxy-benzenesulfonyl)-methyl-amino]-3,5-dimethyl-benzamide] | 213 nM | 4 nM | 13 nM | 76 nM |  |  | 
9 | CCN(c1c(C)cc(C)cc1C(=O)NO)S(=O)(=O)c1ccc(OC)cc1 [Example 131, 2-[Ethyl-(4-methoxy-benzenesulfonyl)-amino]-N-hydroxy-3,5-dimethyl-benzamide] | 212 nM | 54 nM | 48 nM | 80 nM |  |  | 
10 | COc1ccc(S(=O)(=O)N(Cc2cccnc2)c2c(Br)cc(C)cc2C(=O)NO)cc1 [Example 138, 3-Bromo-N-hydroxy-2-[(4-methoxy-benzenesulfonyl)-pyridin-3-ylmethyl-amino]-5-methyl-benzamide] | 258 nM | 77 nM | 57 nM | 215 nM |  |  | 
11 | COc1ccc(S(=O)(=O)N(Cc2cccnc2)c2c(C(=O)NO)cc(C)cc2-c2ccco2)cc1 [Example 186, 3-Furan-2-yl-N-hydroxy-2-[(4-methoxybenzenesulfonyl)-pyridin-3-ylmethylamino]-5-methyl-benzamide] | 37 nM | 13 nM |  |  | 61 nM |  | 1.4 nM
12 | CCN(CC)Cc1cccc(C(=O)NO)c1N(C)S(=O)(=O)c1ccc(OC)cc1 [Example 191, 3-Diethylaminomethyl-N-hydroxy-2-[(4-methoxybenzenesulfonyl)-methylamino]benzamide] | 1240 nM | 10 nM | 67 nM | 210 nM |  |  | 

Results, then the compound that gave them:

Row | IC50 [1] | IC50 [2] | IC50 ([3]; read-out: MMP-13 IC50) | IC50 ([4]; read-out: TACE IC50) | IC50 [4] | inhibition at 1 µM [4] | IC50 [3] | SMILES
13 | 553 nM | 353 nM | 728 nM | 1000 nM |  |  |  | COc1ccc(S(=O)(=O)N(Cc2ccccc2)c2ccc(C)cc2C(=O)NO)cc1 [Example 29, 2-[Benzyl-(4-methoxy-benzenesulfonyl)-amino]-N-hydroxy-5-methyl-benzamide]
14 | 670 nM | 29 nM | 216 nM | > 1000 nM |  |  |  | COc1ccc(S(=O)(=O)N(Cc2ccccc2)c2c(OCC(F)(F)F)cccc2C(=O)NO)cc1 [Example 55, 2-[Benzyl-(4-methoxy-benzenesulfonyl)-amino]-N-hydroxy-3-(2,2,2-trifluoroethoxy)-benzamide]
15 | > 1000 nM | 57 nM | 138 nM | > 1000 nM |  |  |  | COCCOCOc1cccc(C(=O)NO)c1N(Cc1ccccc1)S(=O)(=O)c1ccc(OC)cc1 [Example 56, 2-[Benzyl-(4-methoxy-benzenesulfonyl)-amino]-N-hydroxy-3-(2-methoxy-ethoxymethoxy)-benzamide]
16 | > 500 nM | 12 nM | 33 nM | 1000 nM |  |  |  | COc1ccc(S(=O)(=O)N(Cc2ccccc2)c2c(OCc3ccc(C(=O)NO)cc3)cccc2C(=O)NO)cc1 [Example 57, 2-[Benzyl-(4-methoxy-benzenesulfonyl)-amino]-3-[4-(hydroxyaminocarbonyl)-benzyloxy]-N-hydroxy-benzamide]
17 | 244 nM | 5 nM | 36 nM | 682 nM |  |  |  | COc1ccc(S(=O)(=O)N(Cc2ccccc2)c2c(OCCCC(=O)NO)cccc2C(=O)NO)cc1 [Example 58, 2-[Benzyl-(4-methoxy-benzenesulfonyl)-amino]-N-hydroxy-3-(3-hydroxycarbamoyl-propoxy)-benzamide]
18 | 152 nM | 7 nM | 15 nM | 232 nM |  |  |  | COc1ccc(S(=O)(=O)N(Cc2ccccc2)c2c(OC(C)C)cccc2C(=O)NO)cc1 [Example 60, 2-[Benzyl-(4-methoxy-benzenesulfonyl)-amino]-N-hydroxy-3-isopropoxy-benzamide]
19 | 153 nM | 874 nM | 1370 nM | > 1000 nM |  |  |  | Cc1cc(C)c(N(Cc2ccccc2)S(=O)(=O)c2ccc(F)cc2)c(C(=O)NO)c1 [Example 69, 2-[Benzyl-(4-fluoro-benzenesulfonyl)-amino]-N-hydroxy-3,5-dimethyl-benzamide]
20 | > 1000 nM | 554 nM | 959 nM |  | 429 nM |  |  | Cc1cc(C)c(N(Cc2ccccc2)S(=O)(=O)c2ccc(OCc3ccccc3)cc2)c(C(=O)NO)c1 [Example 74, 2-[Benzyl-(4-benzyloxy-benzenesulfonyl)-amino]-N-hydroxy-3,5-dimethyl-benzamide]
21 | 109 nM | 21 nM | 18 nM | 134 nM |  |  |  | C#Cc1cc(C)c(N(Cc2ccccc2)S(=O)(=O)c2ccc(OC)cc2)c(C(=O)NO)c1 [Example 80, 2-[Benzyl-(4-methoxy-benzenesulfonyl)-amino]-5-ethynyl-N-hydroxy-3-methyl-benzamide]
22 | 1000 nM | 276 nM | 209 nM | > 1000 nM |  |  |  | COc1ccc(S(=O)(=O)N(Cc2ccccc2)c2cc3ccccc3cc2C(=O)NO)cc1 [Example 94, 3-[Benzyl-(4-methoxy-benzenesulfonyl)-amino]-naphthalene-2-carboxylic acid hydroxyamide]
23 | 223 nM | 27 nM | 14 nM | 252 nM |  |  |  | COc1ccc(S(=O)(=O)N(Cc2cccc(Br)c2)c2c(C)cc(C)cc2C(=O)NO)cc1 [Example 119, 2-[(3-Bromo-benzyl)-(4-methoxy-benzenesulfonyl)-amino]-N-hydroxy-3,5-dimethyl-benzamide]
24 | 238 nM | 18 nM | 39 nM | 310 nM |  |  |  | COc1ccc(S(=O)(=O)N(Cc2ccc(Br)cc2)c2c(C)cc(C)cc2C(=O)NO)cc1 [Example 120, 2-[(4-Bromo-benzyl)-(4-methoxy-benzenesulfonyl)-amino]-N-hydroxy-3,5-dimethyl-benzamide]
25 | 347 nM | 12 nM | 39 nM | 176 nM |  |  |  | COc1ccc(S(=O)(=O)N(Cc2ccccc2)c2c(C(=O)NO)cccc2[N+](=O)[O-])cc1 [Example 170, 2-[Benzyl-(4-methoxy-benzenesulfonyl)-amino]-N-hydroxy-3-nitro-benzamide]
26 | 323 nM | 16 nM | 71 nM |  |  | 50% |  | COc1ccc(S(=O)(=O)N(Cc2ccccc2)c2c(OCCCO)cccc2C(=O)NO)cc1 [Example 174, 2-[Benzyl-(4-methoxy-benzenesulfonyl)-amino]-N-hydroxy 3-(3-hydroxy-propoxy)-benzamide]
27 | 90 nM | 7 nM | 4 nM | 57 nM |  |  |  | COc1ccc(S(=O)(=O)N(Cc2cccnc2)c2c(C)cc(-c3cccs3)cc2C(=O)NO)cc1 [Example 175, N-Hydroxy-2-[(4-methoxybenzenesulfonyl)-pyridin-3-ylmethyl-amino]-3-methyl-5-thiophen-2-yl benzamide]
28 | 680 nM | 40 nM | 53 nM |  |  | 64% |  | COc1ccc(S(=O)(=O)N(Cc2ccccc2)c2c(C#N)cc(C)cc2C(=O)NO)cc1 [Example 179]

Reference: EP0938471B1, “THE PREPARATION AND USE OF ORTHO-SULFONAMIDO ARYL HYDROXAMIC ACIDS AS MATRIX METALLOPROTEINASE AND TACE INHIBITORS” (priority 1996, dated 1998)
